Laboratory results as given in paper PMC7251097, “Aspartate/asparagine-β-hydroxylase: a high-throughput mass spectrometric assay for discovery of small molecule inhibitors” (Scientific Reports, 2020).
Counter-ions that a name gives are not always drawn. Like-named read-outs stand apart in the source and are kept apart here. Residues, ends and D or L forms follow the SMILES beside them. *: point of attachment. Cbz = O=C(OCc1ccccc1)*

Target: T1, His6-AspH315–758 (human aspartate/asparagine-β-hydroxylase, AspH) (Homo sapiens, UniProt Q12797)
T1 construct: N-Terminally His6-tagged human AspH315–758 (His6-AspH315–758) was produced in E. coli BL21 (DE3) cells; made in house; host or cells: E. coli BL21 (DE3), pET-28a(+) vector
T1 sequence (Q12797 315-758): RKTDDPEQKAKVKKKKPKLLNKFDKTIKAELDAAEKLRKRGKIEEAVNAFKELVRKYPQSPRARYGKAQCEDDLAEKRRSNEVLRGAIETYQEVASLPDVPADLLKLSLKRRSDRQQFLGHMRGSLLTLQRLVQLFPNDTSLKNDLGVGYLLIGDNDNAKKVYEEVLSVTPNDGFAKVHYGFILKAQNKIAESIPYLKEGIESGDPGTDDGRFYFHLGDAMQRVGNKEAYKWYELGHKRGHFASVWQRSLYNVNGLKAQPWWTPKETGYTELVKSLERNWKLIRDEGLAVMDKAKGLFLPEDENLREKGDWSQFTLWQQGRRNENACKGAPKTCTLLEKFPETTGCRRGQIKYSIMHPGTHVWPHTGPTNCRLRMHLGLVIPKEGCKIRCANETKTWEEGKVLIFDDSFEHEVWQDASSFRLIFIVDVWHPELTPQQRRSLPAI
Experiment: SPE-MS AspH inhibition assay (LOPAC screen at fixed 20 μM and IC50 dose-response), hydroxylation of cyclic peptide hFX-CP101–119
Assay type: biochemical
Conditions: for IC50: 50 nM His6-AspH315–758, 1.0 μM hFX-CP101–119, 3 μM 2OG, 2 μM Fe(II), 50 mM HEPES pH 7.5, 20 °C, mean ± SD, n = 2 (2,4-PDCA n = 10), read-out: IC50

[1] = LOPAC compound at 20uM, plate 2, conversion of substrate peptide
[2] = LOPAC compound at 20uM, plate 2, normalised to DMSO and 2,4-PDCA controls
[3] = LOPAC compound at 20uM, plate 2, normalised to DMSO and 2,4-PDCA controls, read-out: Plate 2 (% inhibition)
[4] = LOPAC Plate 4, compound at 20 uM
[5] = LOPAC compound at 20uM, plate 3, conversion of substrate peptide
[6] = LOPAC Plate 4, compound at 20 uM, substrate conversion
[7] = LOPAC compound at fixed 20 uM, plate 1, normalised to DMSO and 2,4-PDCA controls
[8] = LOPAC compound at fixed 20 uM, substrate conversion, plate 1

`Cl.N[C@@H](CCC(=O)O)C(=O)O` [L-Glutamic acid hydrochloride] was tested, and the “Plate 2 (% conversion)” value [1] was 29.01% and the “Plate 2 (% inhibition)” value [2] was 20.74%.

For `NC(=O)CC[C@H](N)C(=O)O` [L-Glutamine], the “Plate 2 (% conversion)” value [1] was 35.03% and the inhibition at 20 µM [3] was 2.77%.

In the case of `N[C@@H](Cn1ccc(=O)c(O)c1)C(=O)O` [L-Mimosine from Koa hoale seeds], the “% conversion” value is reported as 35.13% and the “% inhibition” value [4] is reported as 3.94%.

`N[C@@H](Cn1ccc(=O)c(O)c1)C(=O)O` [L-Mimosine, reference compound] was tested, and the IC50 was 5.06 ± 0.28 µM.

In the case of `CC(=N)NCCCC[C@H](N)C(=O)O.Cl` [L-N6-(1-Iminoethyl)lysine hydrochloride], the “Plate 3 (% conversion)” value [5] is reported as 40.67%.

With `N[C@@H](Cc1c[nH]c2ccccc12)C(=O)O` [L-Tryptophan] the “% conversion” value [6] was 29.06%.

In the case of `C=CC[C@H](N)C(=O)O` [L-allylglycine], the “Plate 1 (% inhibition)” value [7] is reported as 0.29% and the “Plate 1 (% conversion)” value [8] is reported as 35.78%.

For `C[C@](N)(Cc1ccc(O)cc1)C(=O)O` [L-alpha-Methyl-p-tyrosine], the “Plate 3 (% conversion)” value was 32.12%.

For `O=C(O)[C@@H]1CCN1` [L-azetidine-2-carboxylic acid], the “Plate 1 (% conversion)” value was 39.44% and the “Plate 1 (% inhibition)” value was -10.62%.

`CSc1ccccc1N1CCN(CCCCCC(=O)NC2CCCc3ccccc32)CC1` (centres unmarked) [LP44] was tested, and the “Plate 3 (% conversion)” value [5] was 36.33%.

In the case of `Cl.O=C(CCCCCN1CCN(c2ccccc2-c2ccccc2)CC1)NC1CCCc2ccccc21` (centres unmarked) [LP 12 hydrochloride hydrate], the “% inhibition” value [4] is reported as -43.43% and the “% conversion” value [6] is reported as 51.29%.

In the case of `CC(CCc1ccccc1)NCC(O)c1ccc(O)c(C(N)=O)c1` (centres unmarked) [Labetalol hydrochloride], the “Plate 3 (% conversion)” value [5] is reported as 36.38%.

In the case of `Nc1nnc(-c2cccc(Cl)c2Cl)c(N)n1` [Lamotrigine], the “Plate 3 (% conversion)” value [5] is reported as 33.75%.

In the case of `Cc1oncc1C(=O)Nc1ccc(C(F)(F)F)cc1` [Leflunomide], the “Plate 3 (% conversion)” value [5] is reported as 37.93%.

For `COC(=O)C1=C(C)NC(C)=C(C(=O)OC(C)(C)CN(C)CCC(c2ccccc2)c2ccccc2)C1c1cccc([N+](=O)[O-])c1.COC(=O)C1=C(C)NC(C)=C(C(=O)OC(C)(C)CN(C)CCC(c2ccccc2)c2ccccc2)C1c1cccc([N+](=O)[O-])c1.Cl.Cl.O` (centres unmarked) [Lercanidipine hydrochloride hemihydrate], the “Plate 1 (% inhibition)” value [7] was 25.41% and the “Plate 1 (% conversion)” value [8] was 27.34%.

`CC[C@@H](C(N)=O)N1CCCC1=O` [Levetiracetam] was tested, and the “Plate 3 (% conversion)” value was 34.85%.

For `CC(=O)NC[C@H]1CN(c2ccc(N3CCOCC3)c(F)c2)C(=O)O1` [Linezolid], the “Plate 1 (% inhibition)” value [7] was -10.54%, the “Plate 1 (% conversion)” value [8] was 39.41% and the “Plate 5 (% inhibition)” value (plate 5 (Pfitzer), test compounds at fixed 20 μM) was 44.21%. For the same molecule, the “Plate 5 (% conversion)” value (plate 5 (Pfitzer), test compounds at fixed 20 μM, mean conversion DMSO 32.88) was 21.27%.

In the case of `O=C1N(c2ccccc2)c2ccccc2C1(Cc1ccncc1)Cc1ccncc1` [Linopirdine], the “Plate 3 (% conversion)” value [5] is reported as 41.24%.

`[Cl-].[Li+]` [Lithium Chloride] was tested, and the “Plate 2 (% conversion)” value was 35.61% and the “Plate 2 (% inhibition)” value (20 µM) was 1.04%.

For `CCn1cc(C(=O)O)c(=O)c2cc(F)c(N3CCNC(C)C3)c(F)c21` (centres unmarked) [Lomefloxacin hydrochloride], the “Plate 3 (% conversion)” value [5] was 37.37%.

`Nc1nc2c(c(=O)[nH]1)C[C@@H](CCc1ccc(C(=O)N[C@@H](CCC(=O)O)C(=O)O)cc1)CN2.O` [Lometrexol hydrate] was tested, and the “Plate 3 (% conversion)” value was 27.08%.

For `CCCCCN(CCCCC)C(=O)C(CCC(=O)O)NC(=O)c1ccc(Cl)c(Cl)c1` (centres unmarked) [Lorglumide sodium], the “Plate 3 (% conversion)” value [5] was 33.56%.

`CCCCN(CCCC)CC(O)c1cc(Cl)cc2c1-c1ccc(Cl)cc1/C2=C/c1ccc(Cl)cc1` (centres unmarked) [Lumefantrine] was tested, and the “Plate 1 (% inhibition)” value [7] was -1.89% and the “Plate 1 (% conversion)” value [8] was 36.51%.

For `CC1(N2CCC(n3c([C@@H]4CCCNC4)nc4ccccc43)CC2)CCCCCCC1` [MCOPPB], the “Plate 5 (% conversion)” value was 39.16% and the “Plate 5 (% inhibition)” value was -8.35%.

With `CC(C)[C@H](NC(=O)OCc1ccccc1)C(=O)N[C@H](C=O)Cc1ccccc1` [MDL 28170] (Cbz-Val-Phe-aldehyde) the “Plate 3 (% conversion)” value [5] was 33.83%.

With `CC[N+](CC)(CC)CCOc1ccc(/C=C/c2ccccc2)cc1` [MG 624] the “Plate 3 (% conversion)” value [5] was 29.92%.

In the case of `CC(C)c1ccc2c(c1)c(SC(C)(C)C)c(CC(C)(C)C(=O)O)n2Cc1ccc(Cl)cc1` [MK-886, reference compound], the IC50 is reported as 8.58 ± 1.93 µM and the “Inhibition at 20 µM [%]” value (AspH activity, fixed compound concentration 20 μM, initial LOPAC screen, 0.5%v/v DMSO) is reported as 99.9%.

For `CN1CC[C@]2(CCN3CCc4c(oc5ccccc45)[C@@H]3C2)N(C)C1=O.Cl` [MK-912], the “Plate 3 (% conversion)” value [5] was 38.39%.

In the case of `CN(C)CCCNC(=O)c1ccc(-c2cc(O)c3ncccc3c2)cc1` [ML324, reference compound], the IC50 is reported as 4.65 ± 1.28 µM.

For `O=[N+]([O-])/C=C/c1ccc2c(c1)OCO2` [MNS], the “Plate 2 (% conversion)” value [1] was 25.80% and the “Plate 2 (% inhibition)” value [2] was 30.34%.

With `CNCCCC12CCC(c3ccccc31)c1ccccc12` [Maprotiline hydrochloride] the “Plate 3 (% conversion)” value [5] was 42.77%.

With `C[N+](C)(C)CC#CCOC(=O)Nc1cccc(Cl)c1.[Cl-]` [McN-A-343] the “Plate 1 (% inhibition)” value [7] was -1.57% and the “Plate 1 (% conversion)” value [8] was 36.40%.

With `CNC1(C)C2CCC(C2)C1(C)C` (centres unmarked) [Mecamylamine hydrochloride] the “Plate 3 (% conversion)” value [5] was 34.21%.

For `Cc1ccc(Cl)c(Nc2ccccc2C(=O)O)c1Cl` [Meclofenamic acid sodium], the “Plate 3 (% conversion)” value [5] was 31.27%.

`Cc1cnc(NC(=O)C2=C(O)c3ccccc3S(=O)(=O)N2C)s1` [Meloxicam sodium] was tested, and the “Plate 3 (% conversion)” value [5] was 33.11%.

`CC(C)NCC(O)c1cc(O)cc(O)c1.CC(C)NCC(O)c1cc(O)cc(O)c1.O=S(=O)(O)O` (centres unmarked) [Metaproterenol hemisulfate] was tested, and the “Plate 3 (% conversion)” value [5] was 40.68%.

With `CN1C[C@H](CNC(=O)OCc2ccccc2)C[C@@H]2c3cccc4c3c(cn4C)C[C@H]21` [Metergoline] the “Plate 3 (% conversion)” value [5] was 47.43%.

In the case of `CSc1ccc2c(c1)C(N1CCN(C)CC1)Cc1ccccc1S2` (centres unmarked) [Methiothepin mesylate], the “Plate 3 (% conversion)” value [5] is reported as 47.65%.

With `CN(Cc1cnc2nc(N)nc(N)c2n1)c1ccc(C(=O)N[C@@H](CCC(=O)O)C(=O)O)cc1.O` [Methotrexate hydrate] the “Plate 1 (% inhibition)” value [7] was -3.72% and the “Plate 1 (% conversion)” value [8] was 37.12%.

In the case of `COc1ccc(OC)c(C(O)C(C)N)c1` (centres unmarked) [Methoxamine hydrochloride], the “Plate 3 (% conversion)” value is reported as 32.85%.

In the case of `CCN(CC)CCNC(=O)c1cc(Cl)c(N)cc1OC.Cl` [Metoclopramide hydrochloride], the “Plate 3 (% conversion)” value [5] is reported as 35.20%.

`Cc1ccccc1N1C(=O)c2cc(S(N)(=O)=O)c(Cl)cc2NC1C` (centres unmarked) [Metolazone] was tested, and the “Plate 2 (% conversion)” value [1] was 34.23%, the inhibition at 20 µM [3] was 5.16% and the “Plate 3 (% conversion)” value [5] was 30.85%.

In the case of `CC[C@H](C)C(=O)O[C@H]1CCC=C2C=C[C@H](C)[C@H](CC[C@@H]3C[C@@H](O)CC(=O)O3)[C@H]21` [Mevastatin], the “Plate 3 (% conversion)” value [5] is reported as 41.68%.

For `CN1CCN2c3ccccc3Cc3ccccc3C2C1` (centres unmarked) [Mianserin hydrochloride], the “Plate 3 (% conversion)” value [5] was 43.45%.

With `COCC(=O)O[C@]1(CCN(C)CCCc2nc3ccccc3[nH]2)CCc2cc(F)ccc2[C@@H]1C(C)C` [Mibefradil dihydrochloride] the “Plate 3 (% conversion)” value [5] was 62.31%.

With `Cc1[nH]c(=O)c(C#N)cc1-c1ccncc1` [Milrinone] the “Plate 3 (% conversion)” value [5] was 40.58%.

`CN(C)c1ccc(O)c2c1C[C@H]1C[C@H]3[C@H](N(C)C)C(O)=C(C(N)=O)C(=O)[C@@]3(O)C(O)=C1C2=O` [Minocycline hydrochloride] was tested, and the “Plate 3 (% conversion)” value [5] was 8.64%.

In the case of `O=C([O-])[C@H](CC(=O)N1C[C@H]2CCCC[C@H]2C1)Cc1ccccc1.O=C([O-])[C@H](CC(=O)N1C[C@H]2CCCC[C@H]2C1)Cc1ccccc1.[Ca+2]` [Mitiglinide calcium], the “Plate 3 (% conversion)” value [5] is reported as 39.51%.

`NC(=O)c1ncn([C@@H]2O[C@H](CO)[C@@H](O)[C@H]2O)c1O` [Mizoribine] was tested, and the “Plate 3 (% conversion)” value [5] was 41.03%.

For `O=C(NCCN1CCOCC1)c1ccc(Cl)cc1` [Moclobemide], the “Plate 3 (% conversion)” value [5] was 38.98%.

With `O=c1c(-n2ccnn2)c[nH]n1-c1cc(N2CCOCC2)ncn1` [Molidustat, molidustat, reference compound] the IC50 was 13.4 ± 1 µM.

For `CCc1c(C)[nH]c2c1C(=O)C(CN1CCOCC1)CC2` (centres unmarked) [Molindone hydrochloride], the “Plate 3 (% conversion)” value [5] was 42.00%.

With `CCOC(=O)[N-]c1cn(N2CCOCC2)n[o+]1` [Molsidomine] the “Plate 3 (% conversion)” value was 34.83%.

For `O=c1c(O)c(-c2ccc(O)cc2O)oc2cc(O)cc(O)c12` [Morin, reference compound], the inhibition at 20 µM (AspH activity, fixed compound concentration 20 μM, initial LOPAC screen, 0.5%v/v DMSO, read-out: Inhibition at 20 µM [%]) was 101%.

In the case of `CC(=O)Oc1cc(C(C)C)c(OCCN(C)C)cc1C` [Moxisylyte hydrochloride], the “Plate 3 (% conversion)” value [5] is reported as 37.49%.

For `COc1nc(C)nc(Cl)c1NC1=NCCN1.Cl` [Moxonidine hydrochloride], the “Plate 3 (% conversion)” value [5] was 33.12%.

With `Br.NCc1cc(O)no1` [Muscimol hydrobromide] the “Plate 2 (% conversion)” value was 37.87% and the “Plate 2 (% inhibition)” value (20 µM) was -5.71%.
